The text below walks through data of article PMC11232401, “Characterization of antimalarial activity of artemisinin-based hybrid drugs” (Antimicrobial Agents and Chemotherapy, 2024).

Where two headings read alike, the source gives them in different places.

The subject of data set [1] is P. falciparum 3D7 strain. The arrangement: method as in PMID 31290221, PMID 34832911, PMID 38559731. The conditions noted are these: asynchronous culture, SYBR Green I; read-out: IC50 (nM, median ± SEM) for P. falciparum 3D7 strain; cited from earlier work.
The subject of data set [2] is P. falciparum Dd2 strain. The arrangement: method as in PMID 31290221, PMID 34832911, PMID 38559731. Conditions: asynchronous culture, SYBR Green I; read-out: IC50 (nM, median ± SEM) for P. falciparum Dd2 strain; cited from earlier work.
The nature of data set [3]: In vitro metabolic stability assay in microsomes. Format: in vitro ADME. The conditions noted are these: for half-life at 1 µM: read-out: Degradation half-life; for microsomal CLint at 1 µM: 0.4 mg/mL. On the procedure:
In vitro microsomal stability assay was performed in duplicate in a 96-well microtiter plate, using a single-point experiment design ([42]). Test compounds (1 µM) were incubated individually in human (pool of 50, mixed gender), rat (pool of 711, male Sprague Dawley), and mouse (pool of 1,634, male CD1) liver microsomes (Xenotech, Kansas, USA) to a final protein concentration of 0.4 mg/mL, suspended in 0.1 M phosphate buffer (pH 7.4). Incubations were started by the addition of NADPH (1 mM) as a cofactor and shaken for 30 min at 37°C. The reactions were quenched by the addition of 300 µL of ice-cold acetonitrile containing an internal standard (carbamazepine, 0.0236 µg/mL) and centrifuged. The supernatant was transferred to a fresh 96-well plate and analyzed by liquid chromatography-tandem mass spectrometry (LC-MS/MS) (Agilent Rapid Resolution HPLC, AB SCIEX 4500 MS). The relative loss of the parent compound over time was monitored, and plots (concentration vs time) were prepared per compound to determine the first-order rate constant for compound depletion. This was in turn used to calculate half-life, in vitro intrinsic clearance (Clint), and in vivo hepatic extraction ratio ([43]).

Data set [4] concerns hematin (iron III)-initiated β-hematin formation. The data set can be described thus: β-hematin inhibitory activity under oxidizing condition (O-BHIA). Format: biochemical. Conditions: hematin as starting reagent; mean (95% CI). On the procedure:
The compounds were dissolved in DMSO and diluted in DMSO to six different concentrations (1.0–32 mM). Hemin (Fe^III[PPIX]Cl) (BioXtra, Sigma-Aldrich) was first dissolved in 0.1 M NaOH and then suspended in an 80:20 vol/vol mixture of DMSO and propionate buffer (0.1 M, pH 5.6) to a stock solution at 8 mM. Reduced glutathione (GSH) was dissolved in 0.1 M NaOH and then adjusted to 10 mM using propionate buffer (0.1 M, pH 5.6). For β-hematin inhibitory activity (BHIA) under the reducing condition (R-BHIA), hemin (10 µL) and GSH (10 µL) were distributed in a 96-well plate and homogenized, and the plates were sealed using a thin plastic film and incubated for 1 h at 37°C. Then, 20 µL of the drug was added, and the plates were incubated for 2 h at 37°C. The plastic film was removed after drug incubation, 160 µL propionate buffer (1.0 M, pH 5.6) was added, and plates were incubated for 18 h at 37°C. BHIA under the oxidizing condition (O-BHIA) was prepared in parallel without adding GSH. Controls included wells without drugs and wells containing PBS 1× instead of propionate buffer. Afterward, the plates were centrifuged, the supernatant was discarded, and the pellets of β-hematin crystals were washed twice with pure DMSO and then water. The resulting β-hematin crystals were then dissolved in 200 µL 0.1 M NaOH and diluted to a 1:8 ratio. Aliquots were then transferred into a new plate and read by UV-visible absorbance at […]. Percent of BHIA was calculated in comparison to untreated wells (no drugs), and IC50 was then calculated. Two independent experiments were performed using three replicates of each drug concentration ([46]).
Figure S6: A summary of IC50 values derived from β-hematin inhibitory activity (BHIA). Footnotes for table: ^[a,b^] Values are mean and 95% confidence interval of one experiment, each concentration in triplicate. ^[a] Using heme (Fe[II]PPIX[Cl]) as a starting reagent. ^[b] Using hematin (Fe[III]PPIX[OH]) as a starting reagent. ^[c] […] CQ = chloroquine. R-BHIA = reducing β-hematin inhibitory activity. O-BHIA = oxidizing β-hematin inhibitory activity.

Data set [5] relates to Ring stages of NF54 strain P. falciparum. The data set can be described thus: Antiplasmodial activity of drug combinations (pLDH, isobologram/FIC). In kind it is cell-based. Conditions: Plasmodium falciparum, NF54, ring stages NF54; mean (95% CI); tested in parallel with the combination of the same line; read-out: IC50, Drugs alone. On the procedure: The activity of the drug combinations against the P. falciparum NF54 strain was determined as described above. In each experiment, drugs were tested alone and in combination. Twofold serial dilutions of the drug solutions were made using fixed molar ratios of 1:1, 1:3, and 3:1 for each combination and using two technical replicates (ranging from 200 to 1.0 nM). Parasite growth was determined by the pLDH method, as described above. IC50 values for each drug alone or in combination were determined, and an isobologram analysis was performed by plotting the fractional inhibitory concentrations (FIC) for each combination and its component drugs separately. Individual FIC values were calculated as the IC50 of the drug combination divided by the IC50 of the drug in isolation. A dashed line was plotted to indicate any additive effect and distinguish antagonism (above the dashed line) from synergism (below the dashed line). Three independent experiments were performed, each one containing two replicates. Each experiment was used to represent an isobologram analysis [mean and 95% confidence interval (CI)].
Values represent one experiment; each concentration of drug combination was tested in technical duplicate. Black dashed line indicates ΣFIC = 1 (absolute additivity). […] FIC index <1 is synergistic, ~1 is additive, and >1 is antagonistic. Nondetrimental interactions are 0.25 <ΣFIC <1.25.
^[a] Values are the mean and 95% confidence interval of one experiment for each concentration of compounds in duplicate.

The conditions of data set [6]: elimination half-life; cited from earlier work.
The mark [7] stands for this setting: both sexes, pH 7.4, human liver microsomes.
Where [8] appears, read: both sexes, human liver microsomes, pH 7.4.
The mark [9] stands for this setting: male, CD1, pH 7.4, mouse liver microsomes.
Setting [10] is: male, CD1, mouse liver microsomes, pH 7.4.
The mark [11] stands for this setting: male, Sprague Dawley, pH 7.4, rat liver microsomes.
Setting [12] is: male, Sprague Dawley, rat liver microsomes, pH 7.4.

In the case of `COCCOCCOCCOCCn1c(-c2ccc(-n3cc(-c4ccc(OC5OC6OC7(C)CCC8C(C)CCC(C5C)C68OO7)cc4)nn3)cc2)nc2ccccc21` (stereo not drawn) [Hybrid 1], the IC50 in data set [1] was 3 ± 0.2 nM; in data set [2] it was 3 ± 0.3 nM; in data set [4] it was more than 1000 µM; in data set [5], 0.0022 µM. For the same molecule, the half-life at 1 µM in data set [3] (setting [7]) is 5 min; in data set [3] (setting [9]), 7 min; in data set [3] (setting [11]) it was 9 min. The microsomal CLint at 1 µM in data set [3] (setting [8]) stood at 379 µL/min/mg; in data set [3] (setting [10]), 240 µL/min/mg; in data set [3] (setting [12]) it was 186 µL/min/mg. The entries for the “Drug remaining after 30 min” value in data set [3] (human liver microsomes), in data set [3] (mouse liver microsomes) and in data set [3] (rat liver microsomes) were 1%, 6% and 10%, respectively.
Consider `C[C@H]1[C@@H](O)O[C@@H]2O[C@@]3(C)CC[C@H]4[C@H](C)CC[C@@H]1[C@@]24OO3` [DHA, dihydroartemisinin, reference compound], for which the “half-life (t1/2)” value in data set [6] is 60 to 180 min. This molecule registered an IC50 in data set [4] of more than 1000 µM.
As for `CC1CCC2C(C)C(OC(=O)CCC(=O)OCCNc3ccnc4cc(Cl)ccc34)OC3OC4(C)CCC1C32OO4` (stereo not drawn) [Hybrid 2], the IC50 in data set [1] is 4.5 ± 0.5 nM; in data set [2] it was 2.3 ± 0.6 nM; in data set [5], 0.0047 µM. Besides, the half-life at 1 µM in data set [3] (setting [7]) worked out at 4 min; in data set [3] (setting [9]), 6 min; in data set [3] (setting [11]), 5 min. Moreover, the intrinsic metabolic clearance (microsomal CLint) at 1 µM in data set [3] (setting [8]) was 479 µL/min/mg; in data set [3] (setting [10]), 275 µL/min/mg; in data set [3] (setting [12]), 376 µL/min/mg. Also, the “Drug remaining after 30 min” value in data set [3] (human liver microsomes) was determined as 0.3%; in data set [3] (mouse liver microsomes), 4%; in data set [3] (rat liver microsomes), 1%.
